Experiment: in vitro
Conditions: human, hela cells, % viability

Row | SMILES | viability at 28.5 h, 10 µM [%]
1 | c1cncc(CNCc2ccoc2)c1 [CBK001744C] | 88.1
2 | O=C(O)c1cccc(-n2ncc(-c3ccccc3C(F)(F)F)n2)c1 [CBK112721] | 98.1
3 | Cc1c(C)n2c(SCC(=O)N3CCCC3)nnc2[nH]c1=O [CBK287686] | 99.4
4 | O=[N+]([O-])c1ccc(CN2CCC(N3CCN(CCO)CC3)CC2)cc1 [CBK264621G] | 92.6
5 | Nc1nc2ccccc2cc1-c1cccs1 [CBK112549] | 100
6 | COc1ccc2[nH]c3c(c2c1)CCN(S(C)(=O)=O)C31CCN(CCOc2ccccc2)C1 (stereo not drawn) [CBK063187T] | 92.9
7 | N#CCCN(C(=O)NCc1cccc2ccccc12)C1CCCCC1 [CBK156353] | 89
8 | CCCCCC(=O)Nc1ccc(S(=O)(=O)Nc2nnc(CC)s2)cc1 [CBK045478] | 89
9 | COc1ccc(Nc2cc(-c3ccco3)ncn2)cc1OC [CBK090822] | 99.5
10 | CCNC(=O)Nc1nc2cccnc2cc1-c1ccccc1 [CBK081239] | 101
11 | Cc1cc(NC(=O)c2ccc3[nH]ccc3c2)c2ccccc2n1 [CBK116270] | 104
12 | Cn1cc(CNCC2CCN(CCO)CC2)c(-c2cccnc2)n1 [CBK305153] | 91.2
13 | COc1cc(Nc2cncc(-c3cccs3)n2)cc(OC)c1OC [CBK065663] | 80.4
14 | COCc1nnc(NS(=O)(=O)c2ccc(Br)cc2)s1 [CBK045526] | 115
15 | CC(C)C(=O)N1CCC(n2nc(-c3cccs3)ccc2=O)CC1 [CBK284181] | 86.6
16 | O=C(Nc1cccc(F)c1)C(c1ccccc1)N1CCOCC1 (stereo not drawn) [CBK269191] | 84.5
17 | CCCc1nc(NC(c2cccc(C)n2)C2CC2)c2cnn(C)c2n1 (stereo not drawn) [CBK306795] | 88
18 | CC(=O)NCCc1nc2cc(NC(=O)c3ccc([N+](=O)[O-])cc3)ccc2n1C [CBK268368] | 117
19 | NC(=O)CN1CC2(CCNCC2)c2ccccc21 [CBK116314] | 117
20 | Oc1cccc(-c2nccnc2NCc2ccc(Cl)cc2)c1 [CBK037650] | 92.8
21 | O=C(c1c(F)cccc1F)N1CCCC2(CCN(Cc3ccccc3)C2)C1 (stereo not drawn) [CBK136886] | 108
22 | O=C1COc2ccccc2C/C=C/CC2(CCN(Cc3cncnc3)CC2)CN1 [CBK292130] | 112
23 | CS(=O)(=O)NCC1(c2ccccc2)CCN(S(=O)(=O)c2ccc(N3CCOCC3)nc2)CC1 [CBK051634] | 90

Row | SMILES | viability at 28.5 h, 10 µM [%]
24 | O=C(O)/C=C/C(=O)NCCc1c[nH]c2ccccc12 [CBK287222] | 93
25 | O=C1N=C(NC23CC4CC(CC(C4)C2)C3)OC1c1ccccc1 (stereo not drawn) [CBK105263] | 107
26 | COCc1nc2n(n1)CC(NC(C)C(C)OCc1ccccc1)CC2 (stereo not drawn) [CBK304724] | 95.8
27 | CN(C(=O)CN1CCN(c2cc(-c3cccc([N+](=O)[O-])c3)ncn2)CC1)c1ccccc1 [CBK091137] | 103
28 | COC(=O)CCc1ccc(S(=O)(=O)N2CCCN(Cc3c(-c4ccccc4)noc3C)CC2)cc1 [CBK063011] | 97.3
29 | CCN(Cc1ccc(C#N)cc1F)C(=O)Nc1cnn(CC)c1 [CBK305702] | 93.1
30 | CN/C(=N\C1CCCCC1)N1CCOCC1 [CBK023800G] | 92.2
31 | Cc1cc(CNC(=O)[C@@H]2Cc3cn(C)c4cccc(c34)[C@H](CC(C)C)N2)no1 [CBK289420] | 104
32 | COc1ccc(OC(C)C(=O)Nc2cc3oc4ccccc4c3cc2OC)cc1 (stereo not drawn) [CBK266751] | 100
33 | COc1ccc(CC(=O)N2CC=C(c3ccc(C)o3)CC2)cc1 [CBK283572] | 92.4
34 | O=C1COc2ccccc2C(=O)N[C@@H]2CCOC[C@@H]2C/C=C/C[C@H]2[C@H](CCCN2CCO)N1 [CBK292149] | 106
35 | O=C1c2ccccc2C(=O)N1CCOc1nccnc1-c1cnn(Cc2ccccc2)c1 [CBK107089] | 102
36 | CC(C)(C)OC(=O)N1CCC(Oc2cncc(Cl)n2)CC1 [CBK001762] | 98
37 | COc1ccc2cc(C(=O)N(CCO)Cc3ccc(C)s3)n(C)c2c1 [CBK306831] | 116
38 | Cc1cc(NC(=O)Nc2cccc(Cl)c2C)no1 [CBK288245] | 87.3
39 | CCC(=O)Nc1nonc1-c1nc2ccccc2n1Cc1ccc(F)cc1Cl [CBK269608] | 84.1
40 | CC(NC(=O)N1CCC1)c1cccc(S(N)(=O)=O)c1 (stereo not drawn) [CBK306357] | 91.5
41 | Cc1nc2c(c(=O)c3ccccc3n2C)c(=O)n1Cc1ccco1 [CBK287776] | 100
42 | CCC(CO)Nc1cncc(-c2cccs2)n1 (stereo not drawn) [CBK065534] | 110
43 | COc1ccc2c(c1)CC(=O)NC21CCN(CCCCC(C)C)CC1 [CBK039839] | 95.3
44 | Cc1nccn1CCN(C)C(=O)C1CC2C=CC1C21CC1 (stereo not drawn) [CBK282084] | 91.7
45 | O=C1CC(c2ccc(C(=O)O)cc2)c2sccc2N1 (stereo not drawn) [CBK287119] | 91.9
46 | c1ccc(-c2cc(CC3(NCC4CCCCC4)COC3)no2)nc1 [CBK289644] | 93

Row | SMILES | viability at 28.5 h, 10 µM [%]
47 | COc1cccc(CN2CCCC(NC(=O)NCc3cccs3)C2)c1 (stereo not drawn) [CBK307357] | 73.3
48 | c1cncc(-c2cncc(NCC3CCOCC3)n2)c1 [CBK037195] | 92.7
49 | CCc1cc2cc3c(cc2nc1SCC(=O)Nc1nc(C)c(C)s1)OCO3 [CBK108548] | 94.8
50 | CN1CCN(c2cc(C(F)(F)F)c3scc(C(=O)NCCC4=CCCCC4)c3n2)CC1 [CBK028474] | 110
51 | CCCn1c(C)cc2cc(NC(=O)Cn3cc(C)nn3)ccc21 [CBK281548] | 104
52 | COc1ccc(N2CCN(c3cncc(-c4cc(OC)c(OC)c(OC)c4)n3)CC2)cc1OC [CBK037988] | 99.9
53 | O=C(Nc1ccncc1)c1cc2cc(OC(F)(F)F)ccc2[nH]1 [CBK107369] | 89.3
54 | CCOC(=O)C1=CC2C(=NC3=C2CCCC3)C=C1 (stereo not drawn) [CBK009652] | 74.6
55 | CCc1ccc(Nc2nc(N)nc(CN3CCN(c4ccccn4)CC3)n2)cc1 [CBK270064] | 102
56 | CCOc1ccc(-c2nc(C#N)c(NCCN3CCOCC3)o2)cc1 [CBK265867] | 112
57 | c1ccc(Nc2cncc(N3CCNCC3)n2)cc1 [CBK013389] | 100
58 | OC1CC(c2cc(F)ccc2F)N(CCc2ccncc2)C1 (stereo not drawn) [CBK305106] | 87.2
59 | CCCc1c(O)n[nH]c1Cc1ccc(Cl)cc1 [CBK078564] | 104
60 | Cc1cccc(OC(C)C(=O)Nc2ccccc2C(=O)N2CCCCC2)c1 (stereo not drawn) [CBK269960] | 85.4
61 | Cc1ccc(SCC(=O)NCCCN2CCOCC2)cc1 [CBK267678] | 99.3
62 | O=C(Nc1cccc(Cl)c1Cl)N1CCC(n2c(=O)[nH]c3ccccc32)CC1 [CBK149856] | 94.6
63 | COc1cccc(C(=O)Nc2nnc(-c3ccco3)o2)c1 [CBK287421] | 106
64 | COCC(=O)N[C@H]1C[C@H]2C(=O)Nc3ccc(Br)cc3C(=O)N2C1 [CBK289357] | 97.6
65 | CC1CN(C(=O)c2ncoc2-c2ccc(F)cc2)CC(C)O1 (stereo not drawn) [CBK282379] | 90
66 | O=C(NC1CCNC1)c1cccc(S(=O)(=O)NCc2ccsc2)c1 (stereo not drawn) [CBK306706] | 88
67 | COc1ccc(-c2n[nH]c(=S)n2CC(=O)Nc2ccc(NC(=O)CC(C)C)cc2)cc1 [CBK295342] | 100
68 | CS(=O)(=O)N1CCCc2cc(C(=O)O)ccc21 [CBK287072] | 93
69 | Cc1nc(-c2ccccc2)sc1CNC(=O)C(C)c1ccc([N+](=O)[O-])cc1 (stereo not drawn) [CBK092364] | 98

Row | SMILES | viability at 28.5 h, 10 µM [%]
70 | CCc1cc(C(=O)OC)c(NC(=O)C2C3C=CC(C3)C2C(=O)O)s1 (stereo not drawn) [CBK270315] | 94.9
71 | CCS(=O)(=O)Nc1cc(N2CCNCC2)c2occc2c1 [CBK059429C] | 118
72 | Cn1c(=O)c2c(nc(NCCCO)n2C/C=C/c2ccccc2)n(C)c1=O [CBK268940] | 87.2
73 | COc1cccc(Oc2nccnc2-c2cccs2)c1 [CBK107059] | 91.6
74 | COc1ccc(C)cc1OCCO [CBK001975] | 104
75 | COc1ccc(-c2nc(-c3cccs3)cnc2N)cc1OC [CBK063981] | 107
76 | O=C(N[C@H]1CO[C@H]2[C@@H]1OC[C@@H]2Nc1nccc(-c2cccs2)n1)c1cccs1 [CBK289518] | 106
77 | COc1ccc(-c2nnc(SCC(=O)c3ccc(C)o3)o2)cc1 [CBK268334] | 88
78 | Cn1ncc(N2CCC(CNC(=O)COc3ccccc3)C2)cc1=O (stereo not drawn) [CBK306810] | 92.3
79 | NC(=O)c1c(NC(=O)c2ccc(-c3ccccc3)cc2)sc2c1CCC2 [CBK265747] | 91.3
80 | Cc1c(C(=O)N2CCOCC2)sc2nc(-c3ccc(Cl)cc3)nn12 [CBK010863] | 91.4
81 | O=C(Cn1c(-c2cncs2)nc2ccccc21)Nc1ccc(C(=O)N2CCCCC2)cc1 [CBK269439] | 102
82 | COc1ccc(Nc2ccc(-c3ccc(C(=O)O)cc3)cn2)cc1 [CBK037654] | 95.2
83 | Cn1c(/C(C#N)=C\c2ccc(-c3ccc(S(N)(=O)=O)cc3)o2)nc2ccccc21 [CBK266380] | 95
84 | Cc1ccc2oc(C(=O)Nc3sc4c(c3C(=O)NCC3CCCO3)CCC4)c(C)c2c1 (stereo not drawn) [CBK266282] | 111
85 | CC(NC(=O)/C=C\C(=O)O)c1ccc2c(c1)OCO2 (stereo not drawn) [CBK286996] | 93.3
86 | Cc1cc2ccccc2n2c(SCC(=O)NCc3ccco3)nnc12 [CBK265666] | 107
87 | CSCCCNC(=O)c1ccc(-c2ccc(OC(F)(F)F)cc2)nc1 [CBK156216] | 95
88 | CCNc1nc(-c2cccc(/C=C/C(=O)O)c2)cn2ccnc12 [CBK066373] | 88.5
89 | CC(C)C(=O)N1CC2(CCN(Cc3nc4ccccc4s3)CC2)c2ccccc21 [CBK136980] | 96

Same assay, conditions: human, hela cells, % viability, bulk resorufin, single well

Row | SMILES | viability at 28.5 h, 10 µM [%]
90 | O=C1NC(=S)N(c2ccccc2)C(=O)/C1=C\c1ccc(OCc2ccccc2)c(C(=O)O)c1 [CBK264265] | 99.1

Source: PMC12040169 (PLOS Biology, 2025)
